Results taken from US8685999B2, “Beta carboline sulphonylurea derivatives as EP4 receptor antagonists” (Merck Sharp & Dohme Corp., priority 2008, dated 2014).
pIC50: −log10 of the molar value. Like-named read-outs stand apart in the source and are kept apart here.

Target: T1, EP4 (Homo sapiens, UniProt P35408)
T1 construct: expressed in transfected cells; membranes prepared by differential centrifugation
Assay: Prostanoid receptor binding assay (radioligand displacement binding assay)
Description: Prostanoid receptor cDNAs corresponding to full length coding sequences are subcloned into the appropriate sites of mammalian expression vectors and transfected into HEK 293(ebna) cells. HEK 293(ebna) cells expressing the individual cDNAs are grown under selection and individual colonies are isolated after 2-3 weeks of growth using the cloning ring method and subsequently expanded into clonal cell lines.
Transfected HEK 293(ebna) cells are maintained in culture, harvested and membranes are prepared by differential centrifugation, following lysis of the cells in the presence of protease inhibitors, for use in receptor binding assays. Prostanoid receptor binding assays (for DP1, DP2 (CRTH2), EP1, EP2, EP3-III, EP4, FP, IP, and TP) are performed in 10 mM MES/KOH (pH 6.0) (EPs, FP and TP) or 10 mM HEPES/KOH (pH 7.4) (DPs and IP), containing 1 mM EDTA, 2.5-30 mM divalent cation and the appropriate radio-ligand. Synthetic compounds are added in DMSO which is kept constant at 1% (v/v) in all incubations. The reaction is initiated by addition of membrane protein. Non-specific binding is determined in the presence of 10 μM of the corresponding non-radioactive prostanoid. Incubations are conducted for 60-120 min at room temperature or 30° C. and terminated by rapid filtration. Specific binding is calculated by subtracting non specific binding from total binding. The residual specific binding at each ligand concentration is calculated and expressed as a function of ligand concentration in order to construct sigmoidal concentration-response curves. The binding affinity of the compounds is determined by calculating the equilibrium inhibition constant (Ki) from the equation Ki=InPt/1+[radio-ligand]/Kd where Kd is the equilibrium dissociation constant for the radio-ligand:receptor interaction and InPt is the inflection point of the dose-response curves.
Abramovitz, M. et al., Biochem, Biophys. Acta, 2000, 1483, pp. 285.

[1] = column marked X when IC50 < 1, read-out: IC50 (nm) X < 1
[2] = column marked X when IC50 between 1 and 5, read-out: IC50 (nm) 1 < X < 5
[3] = radioligand displacement binding assay, read-out: IC50

T1 sequence (P35408 whole entry): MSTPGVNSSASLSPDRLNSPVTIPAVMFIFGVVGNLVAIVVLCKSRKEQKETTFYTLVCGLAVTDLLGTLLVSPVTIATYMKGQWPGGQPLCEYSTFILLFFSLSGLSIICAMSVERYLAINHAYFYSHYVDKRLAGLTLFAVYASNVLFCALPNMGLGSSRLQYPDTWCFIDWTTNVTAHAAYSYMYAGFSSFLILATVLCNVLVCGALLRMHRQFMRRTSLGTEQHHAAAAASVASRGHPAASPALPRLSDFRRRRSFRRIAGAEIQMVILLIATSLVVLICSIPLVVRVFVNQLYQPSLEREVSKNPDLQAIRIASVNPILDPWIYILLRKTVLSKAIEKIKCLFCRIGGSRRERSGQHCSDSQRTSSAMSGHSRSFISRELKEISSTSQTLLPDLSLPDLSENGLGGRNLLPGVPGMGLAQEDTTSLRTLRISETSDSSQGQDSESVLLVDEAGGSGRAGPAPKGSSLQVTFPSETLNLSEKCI

In the case of CN1CCc2c(n(-c3ccc(CCNC(=O)NS(=O)(=O)c4ccc(Cl)cc4)cc3)c3cc(Cl)cc(Cl)c23)C1=O [Example 1-3, 4-chloro-N-[({2-[4-(5,7-dichloro-2-methyl-1-oxo-1,2,3,4-tetrahydro-9H-beta-carbolin-9-yl)phenyl]ethyl}amino)carbonyl]benzenesulfonamide], the pIC50 [1] was > 9.00.
Molecule CN1CCc2c(n(-c3ccc(CCNC(=O)NS(=O)(=O)c4ccc(Cl)cc4)cc3)c3cc(S(C)(=O)=O)ccc23)C1=O [Example 1-32, 4-chloro-N-{[(2-{4-[2-methyl-7-(methylsulfonyl)-1-oxo-1,2,3,4-tetrahydro-9H-beta-carbolin-9-yl]phenyl}ethyl)amino]carbonyl}benzenesulfonamide] has a pIC50 [2] of 8.30 to 9.00 and a pIC50 [3] of 8.30 to 9.00.
With Cc1nnc(-c2ccc3c(c2)c2c(n3-c3ccc(CC4(NC(=O)NS(=O)(=O)c5ccc(Cl)cc5)CC4)cc3)C(=O)N(C)CC2)o1 [Example 3-1, sodium[(4-chlorophenyl)sulfonyl]{[(1-{4-[2-methyl-6-(5-methyl-1,3,4-oxadiazol-2-yl)-1-oxo-1,2,3,4-tetrahydro-9H-beta-carbolin-9-yl]benzyl}cyclopropyl)amino]carbonyl}azanide] the pIC50 [1] was > 9.00.
For CN1CCc2c(n(-c3ccc(CCNC(=O)NS(=O)(=O)c4ccc(Cl)cc4)cc3)c3ccc(-c4cccnc4)cc23)C1=O [Example 1-21, 4-chloro-N-[({2-[4-(2-methyl-1-oxo-6-pyridin-3-yl-1,2,3,4-tetrahydro-9H-beta-carbolin-9-yl)phenyl]ethyl}amino)carbonyl]benzenesulfonamide], the pIC50 [1] was > 9.00.
With CN1CCc2c(n(-c3ccc(CCNC(=O)NS(=O)(=O)c4ccc(Cl)cc4)cc3)c3cccc(Cl)c23)C1=O [Example 1-13, 4-chloro-N-[({2-[4-(5-chloro-2-methyl-1-oxo-1,2,3,4-tetrahydro-9H-beta-carbolin-9-yl)phenyl]ethyl}amino)carbonyl]benzenesulfonamide] the pIC50 [1] was > 9.00.
CN1CCc2c(n(-c3ccc(CC4(NC(=O)NS(=O)(=O)c5c(Cl)cccc5Cl)CC4)cc3)c3ccc(-c4ccccc4)cc23)C1=O [Example 1-29, 2,6-dichloro-N-[({1-[4-(2-methyl-1-oxo-6-phenyl-1,2,3,4-tetrahydro-9H-beta-carbolin-9-yl)benzyl]cyclopropyl}amino)carbonyl]benzenesulfonamide] was tested, and the pIC50 [1] was > 9.00.
O=C(NCCc1ccc(-n2c3c(c4c(Cl)cc(Cl)cc42)CCN(CC2CC2)C3=O)cc1)NS(=O)(=O)c1ccc(Cl)cc1 [Example 1-7, 4-chloro-N-{[(2-{4-[5,7-dichloro-2-(cyclopropylmethyl)-1-oxo-1,2,3,4-tetrahydro-9H-beta-carbolin-9-yl]phenyl}ethyl)amino]carbonyl}benzenesulfonamide] was tested, and the pIC50 [2] was 8.30 to 9.00 and the pIC50 [3] was 8.30 to 9.00.
In the case of Cc1ccc(S(=O)(=O)NC(=O)NCCc2ccc(-n3c4c(c5c(C)cc(C)cc53)CCN(C)C4=O)cc2)cc1 [Example 1-2, 4-methyl-N-[({2-[4-(2,5,7-trimethyl-1-oxo-1,2,3,4-tetrahydro-9H-beta-carbolin-9-yl)phenyl]ethyl}amino)carbonyl]benzenesulfonamide], the pIC50 [1] was > 9.00.
In the case of CN1CCc2c(n(-c3ccc(CCNC(=O)NS(=O)(=O)c4ccc(Cl)cc4)cc3)c3cc(Cl)ccc23)C1=O [Example 1-12, 4-chloro-N-[({2-[4-(7-chloro-2-methyl-1-oxo-1,2,3,4-tetrahydro-9H-beta-carbolin-9-yl)phenyl]ethyl}amino)carbonyl]benzenesulfonamide], the pIC50 [1] was > 9.00.
For CN1CCc2c(n(-c3ccc(CCNC(=O)NS(=O)(=O)c4ccc(Cl)cc4)cc3)c3ccc(Cl)cc23)C1=O [Example 1-4, 4-chloro-N-[({2-[4-(6-chloro-2-methyl-1-oxo-1,2,3,4-tetrahydro-9H-beta-carbolin-9-yl)phenyl]ethyl}amino)carbonyl]benzenesulfonamide], the pIC50 [1] was > 9.00.
With CN1CCc2c(n(-c3ccc(CCNC(=O)NS(=O)(=O)c4ccc(Cl)cc4)cc3)c3ccc(C4CC4)cc23)C1=O [Example 2-2, 4-chloro-N-[({2-[4-(6-cyclopropyl-2-methyl-1-oxo-1,2,3,4-tetrahydro-9H-beta-carbolin-9-yl)phenyl]ethyl}amino)carbonyl]benzenesulfonamide] the pIC50 [1] was > 9.00.
With CN1CCc2c(n(-c3ccc(CCNC(=O)NS(=O)(=O)c4ccc(Cl)cc4)cc3)c3cc(Cl)c(Cl)cc23)C1=O [Example 1-10, 4-chloro-N-[({2-[4-(6,7-dichloro-2-methyl-1-oxo-1,2,3,4-tetrahydro-9H-beta-carbolin-9-yl)phenyl]ethyl}amino)carbonyl]benzenesulfonamide] the pIC50 [1] was > 9.00.
In the case of COc1cccc(OC)c1S(=O)(=O)NC(=O)NC1(Cc2ccc(-n3c4c(c5cc(-c6ccccc6)ccc53)CCN(C)C4=O)cc2)CC1 [Example 1-30, 2,6-dimethoxy-N-[({1-[4-(2-methyl-1-oxo-6-phenyl-1,2,3,4-tetrahydro-9H-beta-carbolin-9-yl)benzyl]cyclopropyl}amino)carbonyl]benzenesulfonamide], the pIC50 [1] was > 9.00.
